Experimental data from ChEMBL document CHEMBL1123524, “Aminoglycoside antibiotics. 6. Chemical reactions of aminoglycosides with disodium carbenicillin” (1986).
Values after ≈ are worked out from the molar mass of the structure shown.

Columns and labels:
[1] = tested on: Escherichia coli; assay: Antibacterial activity expressed as MIC value was determined on Escherichia coli A-9632 organism; assay type: functional
[2] = tested on: Escherichia coli; assay: Antibacterial activity expressed as MIC value was determined on Escherichia coli A-20665 organism; assay type: functional
[3] = tested on: Escherichia coli; assay: Antibacterial activity expressed as MIC value was determined on Escherichia coli A-20683 organism; assay type: functional
[4] = tested on: Escherichia coli; assay: Antibacterial activity expressed as MIC value was determined on Escherichia coli A-20697 organism; assay type: functional
[5] = tested on: Escherichia coli; assay: Antibacterial activity expressed as MIC value was determined on Escherichia coli A-20732 organism; assay type: functional
[6] = tested on: Escherichia coli; assay: Antibacterial activity expressed as MIC value was determined on Escherichia coli A-20895 organism; assay type: functional
[7] = tested on: Escherichia coli; assay: Antibacterial activity expressed as MIC value was determined on Escherichia coli A-21218 organism; assay type: functional
[8] = tested on: Escherichia coli; assay: Antibacterial activity expressed as MIC value was determined on Escherichia coli A-22045 organism; assay type: functional
[9] = tested on: Escherichia coli; assay: (§1) Antibacterial activity expressed as MIC value was determined on Escherichia coli A-22356 organism; assay type: functional
[10] = tested on: Enterobacter cloacae; assay: Antibacterial activity expressed as MIC value was determined on Enterobacter cloacae A-21006 organism; assay type: functional
[11] = tested on: Enterobacter cloacae; assay: Antibacterial activity expressed as MIC value was determined on Enterobacter cloacae A-21136 organism; assay type: functional
[12] = tested on: Enterobacter cloacae; assay: Antibacterial activity expressed as MIC value was determined on Enterobacter cloacae A-9656 organism; assay type: functional
[13] = tested on: Klebsiella pneumoniae; assay: Antibacterial activity expressed as MIC value was determined on Klebsiella pneumonia A-20468 organism; assay type: functional
[14] = tested on: Providencia stuartii; assay: Antibacterial activity expressed as MIC value was determined on Proteus stuartii A-21210 organism; assay type: functional
[15] = tested on: Proteus mirabilis; assay: Antibacterial activity expressed as MIC value was determined on Proteus mirabilis A-9900 organism; assay type: functional
[16] = tested on: Pseudomonas aeruginosa; assay: Antibacterial activity expressed as MIC value was determined on Pseudomonas aeruginosa A-20601 organism; assay type: functional
[17] = tested on: Pseudomonas aeruginosa; assay: Antibacterial activity expressed as MIC value was determined on Pseudomonas aeruginosa A-20653 organism; assay type: functional
[18] = tested on: Pseudomonas aeruginosa; assay: Antibacterial activity expressed as MIC value was determined on Pseudomonas aeruginosa A-20717 organism; assay type: functional
[19] = tested on: Pseudomonas aeruginosa; assay: Antibacterial activity expressed as MIC value was determined on Pseudomonas aeruginosa A-20897 organism; assay type: functional
[20] = tested on: Pseudomonas aeruginosa; assay: Antibacterial activity expressed as MIC value was determined on Pseudomonas aeruginosa A-21294 organism; assay type: functional
[21] = tested on: Providencia rettgeri; assay: Antibacterial activity expressed as MIC value was determined on Proteus rettgeri A-21207 organism; assay type: functional
[22] = tested on: Providencia rettgeri; assay: (§2) Antibacterial activity expressed as MIC value was determined on Proteus rettgeri A-9637 organism; assay type: functional
[23] = tested on: Pseudomonas aeruginosa; assay: Antibacterial activity expressed as MIC value was determined on Pseudomonas aeruginosa A-21509 organism; assay type: functional
[24] = tested on: Pseudomonas aeruginosa; assay: Antibacterial activity expressed as MIC value was determined on Pseudomonas aeruginosa A-22233 organism; assay type: functional
[25] = tested on: Pseudomonas aeruginosa; assay: Antibacterial activity expressed as MIC value was determined on Pseudomonas aeruginosa A-9834A organism; assay type: functional
[26] = tested on: Serratia marcescens; assay: Antibacterial activity expressed as MIC value was determined on Serratia marcescens A-20019 organism; assay type: functional
[27] = tested on: Staphylococcus aureus; assay: Antibacterial activity expressed as MIC value was determined on Staphylococcus aureus A-20240 organism; assay type: functional
[28] = tested on: Staphylococcus aureus; assay: Antibacterial activity expressed as MIC value was determined on Staphylococcus aureus A-21978 organism; assay type: functional
[29] = tested on: Staphylococcus aureus; assay: Antibacterial activity expressed as MIC value was determined on Staphylococcus aureus A-22210 organism; assay type: functional
[30] = tested on: Staphylococcus aureus; assay: Antibacterial activity expressed as MIC value was determined on Staphylococcus aureus A-22231 organism; assay type: functional
[31] = tested on: Staphylococcus aureus; assay: Antibacterial activity expressed as MIC value was determined on Staphylococcus aureus A-9537 organism; assay type: functional
[32] = tested on: Staphylococcus aureus; assay: Antibacterial activity expressed as MIC value was determined on Staphylococcus aureusA-22058 organism; assay type: functional, organism-based
[33] = tested on: Providencia stuartii; assay: Antibacterial activity expressed as MIC value was determined on Proteus stuartii A-20894 organism; assay type: functional
[34] = tested on: Pseudomonas aeruginosa; assay: Antibacterial activity expressed as MIC value was determined on Pseudomonas aeruginosa A-20741 organism; assay type: functional
[35] = tested on: Enterobacter cloacae; assay: Antibacterial activity expressed as MIC value was determined on Enterobacter cloacae A-20364 organism; assay type: functional
[36] = tested on: Pseudomonas aeruginosa; assay: Antibacterial activity expressed as MIC value was determined on Pseudomonas aeruginosa A-21508 organism; assay type: functional
[37] = tested on: Escherichia coli; assay: as §1; assay type: functional; remark: listed apart in the source
[38] = tested on: Escherichia coli; assay: Antibacterial activity expressed as MIC value was determined on Escherichia coli A-20895; assay type: functional
[39] = tested on: Providencia rettgeri; assay: ntibacterial activity expressed as MIC value was determined on Proteus rettgeri A-21207 organism; assay type: functional
[40] = tested on: Providencia rettgeri; assay: as §2; assay type: functional; remark: listed apart in the source
[41] = tested on: Staphylococcus aureus; assay: Antibacterial activity expressed as MIC value was determined on Staphylococcus aureus A-22058 organism; assay type: functional

“2-{4,6-Diamino-3-[3-amino-6-(1-amino-ethyl)-tetrahydro-pyran-2-yloxy]-2-hydroxy-cyclohexyloxy}-5-methyl-4-methylamino-tetrahydro-pyran-3,5-diol; compound with 6-(2-carboxy-2-phenyl-acetylamino)-3,3-dimethyl-7-oxo-4-thia-1-aza-bicyclo[3.2.0]heptane-2-carbo” showed an MIC [1] of 250 µg/mL, an MIC [2] of over 250 µg/mL and an MIC [3] of over 250 µg/mL. The MIC [4] was 250 µg/mL, the MIC [5] was over 250 µg/mL and the MIC [6] was over 250 µg/mL. For the same compound, the MIC [7] was 250 µg/mL, the MIC [8] was over 250 µg/mL and the MIC [9] was 250 µg/mL. For the same compound, the MIC [10] was 250 µg/mL, the MIC [11] was over 250 µg/mL and the MIC [12] was over 250 µg/mL. The MIC [13] was 125 µg/mL, the MIC [14] was over 250 µg/mL and the MIC [15] was 250 µg/mL. For the same compound, the MIC [16] was over 250 µg/mL, the MIC [17] was over 250 µg/mL and the MIC [18] was over 250 µg/mL. For the same compound, the MIC [19] was over 250 µg/mL, the MIC [20] was over 250 µg/mL and the MIC [21] was over 250 µg/mL. It also gave an MIC [22] of 32 µg/mL, an MIC [23] of over 250 µg/mL and an MIC [24] of over 250 µg/mL. For the same compound, the MIC [25] was over 250 µg/mL, the MIC [26] was over 250 µg/mL and the MIC [27] was over 250 µg/mL. For the same compound, the MIC [28] was over 250 µg/mL, the MIC [29] was over 250 µg/mL and the MIC [30] was 16 µg/mL. For the same compound, the MIC [31] was 16 µg/mL, the MIC [32] was 32 µg/mL and the MIC [33] was over 250 µg/mL. The MIC [34] was over 250 µg/mL, the MIC [35] was 250 µg/mL and the MIC [36] was over 250 µg/mL.

`CC1(C)S[C@@H]2[C@H](NC(=O)C(C(=O)O)c3ccccc3)C(=O)N2[C@H]1C(=O)O` (some centres not stated) [CARBENICILLIN] showed an MIC [1] of 8 µg/mL (≈ 21.1 µM), an MIC [37] of 4 µg/mL (≈ 10.6 µM) and an MIC [2] of 8 µg/mL (≈ 21.1 µM). The MIC [3] was over 125 µg/mL, the MIC [4] was 32 µg/mL (≈ 84.6 µM) and the MIC [5] was over 125 µg/mL. The MIC [38] was 63 µg/mL (≈ 166 µM), the MIC [7] was 32 µg/mL (≈ 84.6 µM) and the MIC [8] was 32 µg/mL (≈ 84.6 µM). For the same compound, the MIC [10] was over 125 µg/mL, the MIC [11] was over 125 µg/mL and the MIC [12] was 32 µg/mL (≈ 84.6 µM). The MIC [13] was over 125 µg/mL, the MIC [39] was 16 µg/mL (≈ 42.3 µM) and the MIC [14] was 1 µg/mL (≈ 2.64 µM). For the same compound, the MIC [40] was 0.5 µg/mL (≈ 1.32 µM), the MIC [15] was 0.5 µg/mL (≈ 1.32 µM) and the MIC [16] was 125 µg/mL (≈ 330 µM). It also gave an MIC [17] of 125 µg/mL (≈ 330 µM), an MIC [18] of over 125 µg/mL and an MIC [19] of over 125 µg/mL. It also gave an MIC [20] of over 125 µg/mL, an MIC [23] of over 125 µg/mL and an MIC [24] of over 125 µg/mL. For the same compound, the MIC [25] was 32 µg/mL (≈ 84.6 µM), the MIC [26] was 16 µg/mL (≈ 42.3 µM) and the MIC [27] was 8 µg/mL (≈ 21.1 µM). The MIC [28] was over 125 µg/mL, the MIC [41] was 4 µg/mL (≈ 10.6 µM) and the MIC [29] was over 125 µg/mL. It also gave an MIC [30] of 2 µg/mL (≈ 5.29 µM), an MIC [31] of 1 µg/mL (≈ 2.64 µM) and an MIC [33] of 8 µg/mL (≈ 21.1 µM). It also gave an MIC [34] of 125 µg/mL (≈ 330 µM), an MIC [35] of over 125 µg/mL and an MIC [36] of over 125 µg/mL.
